Experimental data: patent US7723320B2, “Use of estrogen compounds to increase libido in women” (Pantarhei Bioscience B.V., priority 2001, dated 2010)
Values joined by “and” are separate entries in the source; they are usually repeats but may differ in a detail not shown here. Equal values may be shown once.

How the values were obtained:
[1] = system: ovariectomized adult rats; experiment: Vaginal cornification bioassay in ovariectomized rats; type: in vivo, rat
Excerpt: Uterine weight increase in the rat is more commonly used as a measure of estrogenicity. […] In the early 1920s it was discovered that follicular fluid from the pig ovary contained a factor(s) that caused cornification/keratinization of the vaginal epithelium in the rat (Allen and Doisy, 1923, JAMA, 81,819-821; Allen and Doisy, 1924, Am. J. Physiol., 69, 577-588). The so-called vaginal cornification response in rats subsequently provided a bioassay for testing estrogenicity. Vaginal epithelial cornification/keratinization in ovariectomized rats can be produced only by compounds considered to be true estrogens (Jones et al, 1973, Fert. Steril. 24, 284-291). […] Adult intact female CD rats were ovariectomized to induce estrogen deficiency. […] Castrate vaginal smears are indicative that complete ovanectomy was achieved. Treatment commenced following completion of the 7 days of smearing (day 0=first day of dosing). Animals were dosed, once daily for 7 consecutive days. Daily vaginal lavages continued to be obtained for 7 days after dosing was initiated in order to detect vaginal cornification, as an indication of an estrogenic response. A drop of vaginal washings was placed on a glass slide and examined by light microscopy to detect the presence or absence of cornified epithelial cells. Vaginal lavages were obtained prior to dosing on days 0-6 and prior to necropsy on day 7. The vaginal cornification bioassay was performed in order to determine the estrogenic profile of E4 when given subcutaneously (sc) to ovariectomized adult rats. E2 was used as a positive control. […] The vaginal cornification bioassay was performed in order to determine the estrogenic profile of E4 when given orally (po) to ovariectomized adult rats. EE was used as a positive control. […] A vaginal estrogenic response occurred in all rats (8/8) given 50 μg/kg/day EE po by day 7 (Table 2).

[2] = molecular target: T1, human sex Hormone Binding Globulin (SHBG) (Homo sapiens, UniProt P04278); experiment: Competitive steroid-binding assay, SHBG; details: [3H]DHT or [3H]estradiol as labeled ligands
T1 construct: made in house; host or cells: transgenic mouse (purified from serum)
T1 sequence (P04278 30-402): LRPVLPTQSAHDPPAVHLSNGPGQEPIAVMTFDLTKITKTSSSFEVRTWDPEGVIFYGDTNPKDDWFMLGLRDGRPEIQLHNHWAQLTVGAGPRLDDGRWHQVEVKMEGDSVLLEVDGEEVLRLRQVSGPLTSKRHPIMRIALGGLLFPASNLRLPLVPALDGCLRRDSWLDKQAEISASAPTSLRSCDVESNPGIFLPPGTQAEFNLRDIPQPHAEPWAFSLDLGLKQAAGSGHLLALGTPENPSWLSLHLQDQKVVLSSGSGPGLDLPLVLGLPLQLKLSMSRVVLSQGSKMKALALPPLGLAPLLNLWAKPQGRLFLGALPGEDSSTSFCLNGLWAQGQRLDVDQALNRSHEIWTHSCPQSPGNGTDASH
Experimental: Human SHBG was treated for 30 min at room temperature with a dextran-coated charcoal (DCC) suspension in phosphate buffered saline (PBS) to remove any steroid ligand. After centrifugation (2,000×g for 10 min) to sediment the DCC, the supernatant containing the human SHBG was diluted in PBS to a concentration of 1 nM based on its steroid binding capacity.
The average amounts of [^3H]labeled ligands bound to SHBG at each concentration of competitor (B) were expressed as a percentage of the average amounts of [^3H]labeled ligands bound to SHBG in the absence of competitor (B0), and were plotted against the concentration of competitor in each assay tube.

[3] = tritium labeled, intravenous, two adult women; cited from earlier work
uterus = details: continuous administration from a subcutaneous depot; cited from earlier work

Structure (SMILES): C[C@]12CC[C@@H]3c4ccc(O)cc4CC[C@H]3[C@@H]1[C@@H](O)[C@@H](O)[C@@H]2O [E4, 1,3,5(10)-estratrien-3,15α,16α,17β-tetrol]
- Number of Rats Exhibiting Estrogenic Response/Number of Rats Treated ([1]; po, 0.1 mg/kg/day, Day 0): 0/8
- Number of Rats Exhibiting Estrogenic Response/Number of Rats Treated ([1]; po, 0.1 mg/kg/day, Day 1): 0/8
- Number of Rats Exhibiting Estrogenic Response/Number of Rats Treated ([1]; po, 0.1 mg/kg/day, Day 2): 1/8
- Number of Rats Exhibiting Estrogenic Response/Number of Rats Treated ([1]; po, 0.1 mg/kg/day, Day 3): 7/8
- Number of Rats Exhibiting Estrogenic Response/Number of Rats Treated ([1]; po, 0.1 mg/kg/day, Day 4): 8/8
- Number of Rats Exhibiting Estrogenic Response/Number of Rats Treated ([1]; po, 0.1 mg/kg/day, Day 5): 8/8
- Number of Rats Exhibiting Estrogenic Response/Number of Rats Treated ([1]; po, 0.1 mg/kg/day, Day 6): 8/8
- Number of Rats Exhibiting Estrogenic Response/Number of Rats Treated ([1]; po, 0.1 mg/kg/day, Day 7): 8/8
- Number of Rats Exhibiting Estrogenic Response/Number of Rats Treated ([1]; po, 0.3 mg/kg/day, Day 0): 0/8
- Number of Rats Exhibiting Estrogenic Response/Number of Rats Treated ([1]; po, 0.3 mg/kg/day, Day 1): 0/8
- Number of Rats Exhibiting Estrogenic Response/Number of Rats Treated ([1]; po, 0.3 mg/kg/day, Day 2): 1/8
- Number of Rats Exhibiting Estrogenic Response/Number of Rats Treated ([1]; po, 0.3 mg/kg/day, Day 3): 7/8
- Number of Rats Exhibiting Estrogenic Response/Number of Rats Treated ([1]; po, 0.3 mg/kg/day, Day 4): 8/8
- Number of Rats Exhibiting Estrogenic Response/Number of Rats Treated ([1]; po, 0.3 mg/kg/day, Day 5): 8/8
- Number of Rats Exhibiting Estrogenic Response/Number of Rats Treated ([1]; po, 0.3 mg/kg/day, Day 6): 8/8
- Number of Rats Exhibiting Estrogenic Response/Number of Rats Treated ([1]; po, 0.3 mg/kg/day, Day 7): 8/8
- Number of Rats Exhibiting Estrogenic Response/Number of Rats Treated ([1]; po, 1.0 mg/kg/day, Day 0): 0/8
- Number of Rats Exhibiting Estrogenic Response/Number of Rats Treated ([1]; po, 1.0 mg/kg/day, Day 1): 0/8
- Number of Rats Exhibiting Estrogenic Response/Number of Rats Treated ([1]; po, 1.0 mg/kg/day, Day 2): 4/8
- Number of Rats Exhibiting Estrogenic Response/Number of Rats Treated ([1]; po, 1.0 mg/kg/day, Day 3): 8/8
- Number of Rats Exhibiting Estrogenic Response/Number of Rats Treated ([1]; po, 1.0 mg/kg/day, Day 4): 8/8
- Number of Rats Exhibiting Estrogenic Response/Number of Rats Treated ([1]; po, 1.0 mg/kg/day, Day 5): 8/8
- Number of Rats Exhibiting Estrogenic Response/Number of Rats Treated ([1]; po, 1.0 mg/kg/day, Day 6): 8/8
- Number of Rats Exhibiting Estrogenic Response/Number of Rats Treated ([1]; po, 1.0 mg/kg/day, Day 7): 8/8
- Number of Rats Exhibiting Estrogenic Response/Number of Rats Treated ([1]; po, 3.0 mg/kg/day, Day 0): 0/8
- Number of Rats Exhibiting Estrogenic Response/Number of Rats Treated ([1]; po, 3.0 mg/kg/day, Day 1): 0/8
- Number of Rats Exhibiting Estrogenic Response/Number of Rats Treated ([1]; po, 3.0 mg/kg/day, Day 2): 6/8
- Number of Rats Exhibiting Estrogenic Response/Number of Rats Treated ([1]; po, 3.0 mg/kg/day, Day 3): 8/8
- Number of Rats Exhibiting Estrogenic Response/Number of Rats Treated ([1]; po, 3.0 mg/kg/day, Day 4): 8/8
- Number of Rats Exhibiting Estrogenic Response/Number of Rats Treated ([1]; po, 3.0 mg/kg/day, Day 5): 8/8
- Number of Rats Exhibiting Estrogenic Response/Number of Rats Treated ([1]; po, 3.0 mg/kg/day, Day 6): 8/8
- Number of Rats Exhibiting Estrogenic Response/Number of Rats Treated ([1]; po, 3.0 mg/kg/day, Day 7): 8/8
- onset of vaginal cornification (animals responding at days 1-3), po versus sc ([1]; relatively low doses, e.g. 0.1 mg/kg/day): faster in po-treated
- onset of vaginal epithelial cornification ([1]; sc 0.1, 0.3, 1.0 and 3.0 mg/kg/day): dose-dependent
- Number of Rats Exhibiting Estrogenic Response/Number of Rats Treated ([1]; sc, 0.1 mg/kg/day, Day 0): 0/8
- Number of Rats Exhibiting Estrogenic Response/Number of Rats Treated ([1]; sc, 0.1 mg/kg/day, Day 1): 0/8
- Number of Rats Exhibiting Estrogenic Response/Number of Rats Treated ([1]; sc, 0.1 mg/kg/day, Day 2): 0/8
- Number of Rats Exhibiting Estrogenic Response/Number of Rats Treated ([1]; sc, 0.1 mg/kg/day, Day 3): 1/8
- Number of Rats Exhibiting Estrogenic Response/Number of Rats Treated ([1]; sc, 0.1 mg/kg/day, Day 4): 1/8
- Number of Rats Exhibiting Estrogenic Response/Number of Rats Treated ([1]; sc, 0.1 mg/kg/day, Day 5): 4/8
- Number of Rats Exhibiting Estrogenic Response/Number of Rats Treated ([1]; sc, 0.1 mg/kg/day, Day 6): 3/8
- Number of Rats Exhibiting Estrogenic Response/Number of Rats Treated ([1]; sc, 0.1 mg/kg/day, Day 7): 4/8
- Number of Rats Exhibiting Estrogenic Response/Number of Rats Treated ([1]; sc, 0.3 mg/kg/day, Day 0): 0/8
- Number of Rats Exhibiting Estrogenic Response/Number of Rats Treated ([1]; sc, 0.3 mg/kg/day, Day 1): 0/8
- Number of Rats Exhibiting Estrogenic Response/Number of Rats Treated ([1]; sc, 0.3 mg/kg/day, Day 2): 1/8
- Number of Rats Exhibiting Estrogenic Response/Number of Rats Treated ([1]; sc, 0.3 mg/kg/day, Day 3): 5/8
- Number of Rats Exhibiting Estrogenic Response/Number of Rats Treated ([1]; sc, 0.3 mg/kg/day, Day 4): 7/8
- Number of Rats Exhibiting Estrogenic Response/Number of Rats Treated ([1]; sc, 0.3 mg/kg/day, Day 5): 6/8
- Number of Rats Exhibiting Estrogenic Response/Number of Rats Treated ([1]; sc, 0.3 mg/kg/day, Day 6): 7/8
- Number of Rats Exhibiting Estrogenic Response/Number of Rats Treated ([1]; sc, 0.3 mg/kg/day, Day 7): 7/8
- Number of Rats Exhibiting Estrogenic Response/Number of Rats Treated ([1]; sc, 1.0 mg/kg/day, Day 0): 0/8
- Number of Rats Exhibiting Estrogenic Response/Number of Rats Treated ([1]; sc, 1.0 mg/kg/day, Day 1): 0/8
- Number of Rats Exhibiting Estrogenic Response/Number of Rats Treated ([1]; sc, 1.0 mg/kg/day, Day 2): 1/8
- Number of Rats Exhibiting Estrogenic Response/Number of Rats Treated ([1]; sc, 1.0 mg/kg/day, Day 3): 6/8
- Number of Rats Exhibiting Estrogenic Response/Number of Rats Treated ([1]; sc, 1.0 mg/kg/day, Day 4): 8/8
- Number of Rats Exhibiting Estrogenic Response/Number of Rats Treated ([1]; sc, 1.0 mg/kg/day, Day 5): 7/8
- Number of Rats Exhibiting Estrogenic Response/Number of Rats Treated ([1]; sc, 1.0 mg/kg/day, Day 6): 8/8
- Number of Rats Exhibiting Estrogenic Response/Number of Rats Treated ([1]; sc, 1.0 mg/kg/day, Day 7, 1 mg/kg/day): all rats and 8/8
- Number of Rats Exhibiting Estrogenic Response/Number of Rats Treated ([1]; sc, 3.0 mg/kg/day, Day 0): 0/8
- Number of Rats Exhibiting Estrogenic Response/Number of Rats Treated ([1]; sc, 3.0 mg/kg/day, Day 1): 0/8
- Number of Rats Exhibiting Estrogenic Response/Number of Rats Treated ([1]; sc, 3.0 mg/kg/day, Day 2): 3/8
- Number of Rats Exhibiting Estrogenic Response/Number of Rats Treated ([1]; sc, 3.0 mg/kg/day, Day 3): 8/8
- Number of Rats Exhibiting Estrogenic Response/Number of Rats Treated ([1]; sc, 3.0 mg/kg/day, Day 4): 8/8
- Number of Rats Exhibiting Estrogenic Response/Number of Rats Treated ([1]; sc, 3.0 mg/kg/day, Day 5): 8/8
- Number of Rats Exhibiting Estrogenic Response/Number of Rats Treated ([1]; sc, 3.0 mg/kg/day, Day 6): 8/8
- Number of Rats Exhibiting Estrogenic Response/Number of Rats Treated ([1]; sc, 3.0 mg/kg/day, Day 7, 3 mg/kg/day): all rats and 8/8
- relative binding affinity for human SHBG [2]: does not bind at all
- excretion [3]: rapidly and completely excreted in urine as the glucosiduronate
- metabolism [3]: virtually no metabolism except for conjugation
- uterotrophic activity (uterus): very weak uterotrophic activity
